What was measured:
Format in all cases: in vivo
Lolium multiflorum Lam. = experiment: Test Example 5: herbicidal effect by foliage application, plastic box (symbol K); details: 320 g/ha, 3 weeks after application
Procedure, shortened: (§1)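 Sowing in sterilized diluvial soil, 14 days' greenhouse growth at 25° C. to 30° C., then uniform small-sprayer foliar application of aqueous emulsion dilution; plants scored three weeks afterwards.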

Amaranthus retroflexus = experiment: Test Example 5: herbicidal effect by foliage application, plastic box (symbol N); details: 320 g/ha, 3 weeks after application
Procedure, shortened: as §1

Scirpus juncoides = experiment: Test Example 1: herbicidal activity, application before weed generation in submerged conditions (symbol B); details: application herbicide amount 320 g/ha
Procedure, shortened: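 Paddy pre-emergence test. Formulated emulsion, water-diluted to a predetermined rate, is applied to floodwater on sowing day; rice transplanted at 2.5 leaves. Effect read at 3 weeks on a 0–5 herbicidal-ratio scale.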

| SMILES | K: Lolium multiflorum Lam., herbicidal effect (criteria 0-5) (Lolium multiflorum Lam.) | N: Amaranthus retroflexus, herbicidal effect (criteria 0-5) (Amaranthus retroflexus) | Herbicidal effect grade, B: Scirpus juncoides (Scirpus juncoides) | K: Lolium multiflorum Lam., herbicidal effect grade (Lolium multiflorum Lam.) | N: Amaranthus retroflexus, herbicidal effect grade (Amaranthus retroflexus) |
| --- | --- | --- | --- | --- | --- |
| CON=C(C)CC1CC(OS(=O)(=O)CC[Si](C)(C)C)=C(c2c(C)cc(C)cc2C)C1=O (stereo not drawn) [1-144] | 5 (Herbicidal ratio of 90% or more (almost completely withered)) | 1 (Herbicidal ratio of 5% or higher and lower than 20%) | 5 (Herbicidal ratio of 90% or more (almost completely withered)) | – | – |
| CON=C(C)CC1CC(OC(=O)OCc2ccccc2)=C(c2c(C)cc(C)cc2C)C1=O (stereo not drawn) [1-145] | 5 (Herbicidal ratio of 90% or more (almost completely withered)) | 0 (Herbicidal ratio of 5% or lower (almost no effect)) | 5 (Herbicidal ratio of 90% or more (almost completely withered)) | – | – |
| C=CCOC(=O)OC1=C(c2c(C)cc(C)cc2C)C(=O)C(CC(C)=NOC)C1 (stereo not drawn) [1-146] | 5 (Herbicidal ratio of 90% or more (almost completely withered)) | 0 (Herbicidal ratio of 5% or lower (almost no effect)) | 5 (Herbicidal ratio of 90% or more (almost completely withered)) | – | – |
| COCCOC(=O)OC1=C(c2c(C)cc(C)cc2C)C(=O)C(CC(C)=NOC)C1 (stereo not drawn) [1-147] | 5 (Herbicidal ratio of 90% or more (almost completely withered)) | 1 (Herbicidal ratio of 5% or higher and lower than 20%) | 5 (Herbicidal ratio of 90% or more (almost completely withered)) | – | – |
| CON=C(C)CC1CC(OC(=O)C(C)(C)c2ccc(Cl)cc2)=C(c2c(C)cc(C)cc2C)C1=O (stereo not drawn) [1-148] | 5 (Herbicidal ratio of 90% or more (almost completely withered)) | 2 (Herbicidal ratio of 20% or higher and lower than 40%) | 4 (Herbicidal ratio of 70% or higher and lower than 90%) | – | – |
| CON=C(C)CC1CC(OC(=O)c2ccc(C(F)(F)F)cc2)=C(c2c(C)cc(C)cc2C)C1=O (stereo not drawn) [1-149] | 5 (Herbicidal ratio of 90% or more (almost completely withered)) | 0 (Herbicidal ratio of 5% or lower (almost no effect)) | 5 (Herbicidal ratio of 90% or more (almost completely withered)) | – | – |
| CON=C(C)CC1CC(OC(=O)N2CCCC2)=C(c2c(C)cc(C)cc2C)C1=O (stereo not drawn) [1-150] | 5 (Herbicidal ratio of 90% or more (almost completely withered)) | 0 (Herbicidal ratio of 5% or lower (almost no effect)) | 3 (Herbicidal ratio of 40% or higher and lower than 70%) | – | – |
| CON=C(C)CC1CC(OC(=O)N2CCCCC2)=C(c2c(C)cc(C)cc2C)C1=O (stereo not drawn) [1-151] | 5 (Herbicidal ratio of 90% or more (almost completely withered)) | 0 (Herbicidal ratio of 5% or lower (almost no effect)) | 3 (Herbicidal ratio of 40% or higher and lower than 70%) | – | – |
| CON=C(C)CC1CC(OC(=O)N2CCN(C)CC2)=C(c2c(C)cc(C)cc2C)C1=O (stereo not drawn) [1-152] | 5 (Herbicidal ratio of 90% or more (almost completely withered)) | 3 (Herbicidal ratio of 40% or higher and lower than 70%) | 0 (Herbicidal ratio of 5% or lower (almost no effect)) | – | – |
| C=CCN(CC=C)C(=O)OC1=C(c2c(C)cc(C)cc2C)C(=O)C(CC(C)=NOC)C1 (stereo not drawn) [1-153] | 5 (Herbicidal ratio of 90% or more (almost completely withered)) | 4 (Herbicidal ratio of 70% or higher and lower than 90%) | 3 (Herbicidal ratio of 40% or higher and lower than 70%) | – | – |
| CON=C(C)CC1CC(OC(=O)c2ccccc2C(F)(F)F)=C(c2c(C)cc(C)cc2C)C1=O (stereo not drawn) [1-154] | 5 (Herbicidal ratio of 90% or more (almost completely withered)) | 3 (Herbicidal ratio of 40% or higher and lower than 70%) | 4 (Herbicidal ratio of 70% or higher and lower than 90%) | – | – |
| CON=C(C)CC1CC(OC(=O)c2ccccc2OC(F)(F)F)=C(c2c(C)cc(C)cc2C)C1=O (stereo not drawn) [1-155] | 5 (Herbicidal ratio of 90% or more (almost completely withered)) | 2 (Herbicidal ratio of 20% or higher and lower than 40%) | 5 (Herbicidal ratio of 90% or more (almost completely withered)) | – | – |
| CON=C(C)CC1CC(OC(=O)Cc2ccc(OC)cc2)=C(c2c(C)cc(C)cc2C)C1=O (stereo not drawn) [1-156] | – | – | 5 (Herbicidal ratio of 90% or more (almost completely withered)) | 5 (Herbicidal ratio of 90% or more (almost completely withered)) | 3 (Herbicidal ratio of 40% or higher and lower than 70%) |
| CON=C(C)CC1CC(OC(=O)N(C)c2ccccc2)=C(c2c(C)cc(C)cc2C)C1=O (stereo not drawn) [1-159] | – | – | 0 (Herbicidal ratio of 5% or lower (almost no effect)) | 5 (Herbicidal ratio of 90% or more (almost completely withered)) | 3 (Herbicidal ratio of 40% or higher and lower than 70%) |
| CON=C(C)CC1CC(OC(=O)c2c(Cl)nn(C)c2Cl)=C(c2c(C)cc(C)cc2C)C1=O (stereo not drawn) [1-160] | – | – | 4 (Herbicidal ratio of 70% or higher and lower than 90%) | 5 (Herbicidal ratio of 90% or more (almost completely withered)) | 0 (Herbicidal ratio of 5% or lower (almost no effect)) |
| CON=C(C)CC1CC(OS(=O)(=O)c2ccc(C)cc2)=C(c2c(C)cc(C)cc2C)C1=O (stereo not drawn) [1-161] | – | – | 4 (Herbicidal ratio of 70% or higher and lower than 90%) | 5 (Herbicidal ratio of 90% or more (almost completely withered)) | 0 (Herbicidal ratio of 5% or lower (almost no effect)) |
| CON=C(C)CC1CC(OC(=O)c2ccc(S(C)(=O)=O)c(C(=O)OC)c2Cl)=C(c2c(C)cc(C)cc2C)C1=O (stereo not drawn) [1-162] | – | – | 4 (Herbicidal ratio of 70% or higher and lower than 90%) | 5 (Herbicidal ratio of 90% or more (almost completely withered)) | 1 (Herbicidal ratio of 5% or higher and lower than 20%) |
| CON=C(C)CC1CC(OC(=O)C(C)Oc2ccc(Oc3ccc(Cl)cc3Cl)cc2)=C(c2c(C)cc(C)cc2C)C1=O (stereo not drawn) [1-163] | – | – | 4 (Herbicidal ratio of 70% or higher and lower than 90%) | 5 (Herbicidal ratio of 90% or more (almost completely withered)) | 3 (Herbicidal ratio of 40% or higher and lower than 70%) |
| CC(=O)C(C(C)=O)C1CC(O)=C(c2c(C)cc(C)cc2C)C1=O (stereo not drawn) [2-002] | – | – | 0 (Herbicidal ratio of 5% or lower (almost no effect)) | 5 (Herbicidal ratio of 90% or more (almost completely withered)) | 0 (Herbicidal ratio of 5% or lower (almost no effect)) |
| COC(=O)C(C(C)=O)C1CC(O)=C(c2c(C)cc(C)cc2C)C1=O (stereo not drawn) [2-003] | – | – | 0 (Herbicidal ratio of 5% or lower (almost no effect)) | 5 (Herbicidal ratio of 90% or more (almost completely withered)) | 0 (Herbicidal ratio of 5% or lower (almost no effect)) |
| CCC(=O)CC1CC(O)=C(c2c(C)cc(C)cc2C)C1=O (stereo not drawn) [2-006] | – | – | 2 (Herbicidal ratio of 20% or higher and lower than 40%) | 5 (Herbicidal ratio of 90% or more (almost completely withered)) | 0 (Herbicidal ratio of 5% or lower (almost no effect)) |
| COCC(=O)CC1CC(O)=C(c2c(C)cc(C)cc2C)C1=O (stereo not drawn) [2-007] | – | – | 2 (Herbicidal ratio of 20% or higher and lower than 40%) | 4 (Herbicidal ratio of 70% or higher and lower than 90%) | 0 (Herbicidal ratio of 5% or lower (almost no effect)) |
| CCOC(=O)C(C(=O)c1ccccc1)C1CC(O)=C(c2c(C)cc(C)cc2C)C1=O (stereo not drawn) [2-008] | – | – | 0 (Herbicidal ratio of 5% or lower (almost no effect)) | 4 (Herbicidal ratio of 70% or higher and lower than 90%) | 1 (Herbicidal ratio of 5% or higher and lower than 20%) |
| CCOC(=O)C(C(=O)C(C)C)C1CC(O)=C(c2c(C)cc(C)cc2C)C1=O (stereo not drawn) [2-009] | – | – | 0 (Herbicidal ratio of 5% or lower (almost no effect)) | 1 (Herbicidal ratio of 5% or higher and lower than 20%) | 0 (Herbicidal ratio of 5% or lower (almost no effect)) |
| CCOC(=O)C(C(=O)C(F)(F)F)C1CC(O)=C(c2c(C)cc(C)cc2C)C1=O (stereo not drawn) [2-010] | – | – | 0 (Herbicidal ratio of 5% or lower (almost no effect)) | 0 (Herbicidal ratio of 5% or lower (almost no effect)) | 0 (Herbicidal ratio of 5% or lower (almost no effect)) |
| CCOC(=O)C(C(=O)Cc1ccccc1)C1CC(O)=C(c2c(C)cc(C)cc2C)C1=O (stereo not drawn) [2-011] | – | – | 0 (Herbicidal ratio of 5% or lower (almost no effect)) | 2 (Herbicidal ratio of 20% or higher and lower than 40%) | 0 (Herbicidal ratio of 5% or lower (almost no effect)) |

— patent publication US11000033B2, “Ketone or oxime compound, and herbicide” (NISSAN CHEMICAL CORPORATION, priority 2014, dated 2021)
